Laboratory results taken from patent US10709692B2, “Isoxazolidine derived inhibitors of receptor interacting protein kinase 1 (RIPK1)” (Denali Therapeutics Inc., priority 2015, dated 2020).

Legend:
[1] = target: T1, receptor interacting protein kinase 1 (GST-hRIPK1 (8-327)) (Homo sapiens, UniProt Q13546); test: Fluorescent Polarization Binding (FP Binding) assay; details: 10 nM GST-hRIPK1 (8-327), 5 nM fluorescent-labeled ligand, 30 min at RT
T1 construct: GST-hRIPK1 (8-327) enzyme was generated by Proteros GmbH by Baculovirus expression system
T1 sequence (Q13546 8-327): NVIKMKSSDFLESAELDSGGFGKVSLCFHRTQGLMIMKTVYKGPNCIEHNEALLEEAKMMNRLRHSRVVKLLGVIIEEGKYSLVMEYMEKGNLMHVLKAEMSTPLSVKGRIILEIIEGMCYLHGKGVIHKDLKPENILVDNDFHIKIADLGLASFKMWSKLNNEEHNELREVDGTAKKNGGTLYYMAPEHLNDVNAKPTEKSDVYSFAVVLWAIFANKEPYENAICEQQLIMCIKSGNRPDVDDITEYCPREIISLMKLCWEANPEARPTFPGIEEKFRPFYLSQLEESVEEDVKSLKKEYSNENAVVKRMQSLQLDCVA
Outline: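 Displacement of 5 nM fluorescent ligand from 10 nM GST-hRIPK1 (8-327), 30 min at room temperature in pH 7.5 HEPES buffer, 1% DMSO. Fluorescence polarization read (ex 531/em 595 nm); IC50 fitted from percent inhibition and averaged over at least two independent experiments.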

[2] = target: T1, receptor interacting protein kinase 1 (GST-hRIPK1 (8-327)); test: ADP-Glo luminescence assay, RIPK1 autophosphorylation; assay type: biochemical; details: 1.5 μg/mL GST-hRIPK1 (8-327), 50 μM ATP, 3 hours at room temperature
Method: (§1) Compound potency at receptor interacting protein kinase 1 and selectivity at receptor interacting protein kinase 2 and receptor interacting protein kinase 3 was determined in autophosphorylation mode, using an ADP-Glo luminescence assay, which measures the conversion of ATP to ADP.
(§2) GST-hRIPK1 (8-327) enzyme was generated by Proteros GmbH by Baculovirus expression system. GST-hRIPK2 (1-299) and GST-hRIPK3 (1-518) enzymes were purchased from SignalChem. Test compounds were diluted in DMSO and 0.1 μL of solution was dispensed to each well of a 384-well white solid microplates. The assay buffer was 50 mM HEPES pH 7.5, 50 mM NaCl, 30 mM MgCl2. The buffer was supplemented with 0.02% CHAPS, 0.01% of Pluronic F127, 0.1 mg/mL BSA and 1 mM DTT. Only for receptor interacting protein kinase 1 5 mM MnCl2, was included in the assay buffer on the day of the experiment. The enzymatic reaction consisted of 1.5 μg/mL GST-hRIPK1 (8-327) and 50 μM ATP for receptor interacting protein kinase 1, 0.4 μg/mL GST-hRIPK2 (1-299) and 150 μM ATP, 0.4 μg/mL GST-hRIPK3 (1-518) and 15 μM ATP. 5 μL of enzyme and 5 μL of ATP were added to the plate at twice the final assay concentration and incubated at room temperature for 3 hours. Following this reaction, 10 μL of ADP-Glo reagent (Promega) was added to each well and incubated for 40 minutes at room temperature. This stops the kinase reaction and depletes any remaining ATP. 20 μL of ADP-Glo detection reagent was then added to each well and incubated at room temperature for at least 15 minutes. The detection reagent converts ADP to ATP and introduces luciferase and luciferin to detect ATP. The luminescence is then measured with the Envision (PerkinElmer) plate reader. Test compound inhibition was expressed as percent inhibition of internal assay controls. For concentration response curves, normalized data is fit and pIC50 determined using XL-fit (IDBS) for Excel. The pIC50 were averaged to determine a mean value, for a minimum of two independent experiments.
as §1, with “Certain compounds were tested in the following. Compound” for “Compound”, “assay (Berger S. B. et al. (2015) Cell Death Discovery, 1: 15009),” for “assay,”
GST-hRIPK1 (8-327) enzyme was generated by Proteros GmbH by Baculovirus expression system.
as §2, with “Test” for “GST-hRIPK1 (8-327) enzyme was generated by Proteros GmbH by Baculovirus expression system. GST-hRIPK2 (1-299) and GST-hRIPK3 (1-518) enzymes were purchased from SignalChem. Test”, “microplate.” for “microplates.”, “comprised” for “consisted of”, “1” for “1, 0.4 μg/mL GST-hRIPK2 (1-299) and 150 μM ATP, 0.4 μg/mL GST-hRIPK3 (1-518)”, “IC50” for “pIC50”, “experiments. […]” for “experiments.”

Compound	melting point	IC50 [1]	IC50 [2]
CC(C)(C(=O)N1OCC[C@H]1c1ccc(-c2ncon2)cc1)C(F)F [Compound 207, 3,3-difluoro-2,2-dimethyl-1-[(3S)-3-[4-(1,2,4-oxadiazol-3-yl)phenyl]-1,2-oxazolidin-2-yl]propan-1-one]	87.9 to 88.9 °C	< 1000 nM	–
CC(C)(C(=O)N1OCC[C@H]1c1ccc(-c2noc(C3CC3)n2)cc1)C(F)F [Compound 208, 1-[(3S)-3-[4-(5-cyclopropyl-1,2,4-oxadiazol-3-yl)phenyl]-1,2-oxazolidin-1-yl]-3,3-difluoro-2,2-dimethylpropan-1-one]	92.1 to 95.6 °C	< 1000 nM	–
Cc1ncc([C@@H]2CCON2C(=O)C(C)(C)C)cc1F (single isomer, unassigned) [Compound 97]	–	< 1000 nM	< 1000 nM
CC1(C(=O)N2OCC[C@H]2c2ccccc2)CCOCC1 [Compound 69, (3S)-2-(4-methyloxane-4-carbonyl)-3-phenyl-1,2-oxazolidine]	–	< 1000 nM	< 1000 nM
N#CC1(C(=O)N2OCC[C@H]2c2ccccc2)CCC1 [Compound 79, 1-[(3S)-3-Phenyl-1,2-oxazolidine-2-carbonyl]cyclobutane-1-carbonitrile]	–	< 1000 nM	< 1000 nM
CC(C)C(=O)N1OCC[C@H]1c1ccc(F)cc1 [Compound 64, 1-[(3S)-3-(4-Fluorophenyl)-1,2-oxazolidin-2-yl]-2-methylpropan-1-one]	–	< 1000 nM	< 1000 nM
CC1(C(=O)N2OCC[C@H]2c2ccccc2)CCC1 [Compound 77, (3S)-2-(1-Methylcyclobutane-carbonyl)-3-phenyl-1,2-oxazolidine]	–	< 1000 nM	< 1000 nM
CC(C)(C)C(=O)N1OCC[C@H]1c1ccccc1 [Compound 2, 2,2-dimethyl-1-[(3S)-3-phenyl-1,2-oxazolidin-2-yl]propan-1-one]	–	< 1000 nM	< 1000 nM
N#CC1(C(=O)N2OCC[C@H]2c2ccccc2)CC1 [Compound 16, 1-[(3S)-3-phenyl-1,2-oxazolidine-2-carbonyl]cyclopropane-1-carbonitrile]	–	< 1000 nM	< 1000 nM
Cn1c(C#N)ccc1C(=O)N1OCC[C@H]1c1ccccc1 [Compound 1, 1-Methyl-5-[(3S)-3-phenyl-1,2-oxazolidine-2-carbonyl]-1H-pyrrole-2-carbonitrile]	–	< 1000 nM	< 1000 nM
CC(C)(C(=O)N1OCC[C@H]1c1ccc(/C(N)=N/O)cc1)C(F)F [Compound 206, (Z)-4-[(3S)-2-(3,3-Difluoro-2,2-dimethylpropanoyl)-1,2-oxazolidin-3-yl]-N′-hydroxybenzene-1-carboximidamide]	67.3 to 75.6 °C	1000 to 10000 nM	–
CC(C)(C)C(=O)N1OCCC1c1ccc(F)cc1 (single isomer, unassigned) [Compound 73, 1-[3-(4-Fluorophenyl)-1,2-oxazolidin-2-yl]-2,2-dimethylpropan-1-one]	–	< 1000 nM	< 1000 nM
